# PMC10712727, “Safety, Tolerability, and Pharmacokinetics of Senaparib, a Novel PARP1/2 Inhibitor, in Chinese Patients With Advanced Solid Tumors: A Phase I Trial” (The Oncologist, 2023)
# System: patients with advanced solid tumors
# Assay: Safety: treatment-emergent and senaparib-related adverse events graded per NCI CTCAE v4.03
# Type: in vivo
# Experimental: This phase I, open-label, multicenter, dose-escalation, and dose-expansion study was conducted at three national clinical institutions in China. […] At baseline, all patients enrolled in the dose-escalation phase had to have at least one evaluable lesion, and those in the dose-expansion period had to have at least one measurable lesion, according to Response Evaluation Criteria in Solid Tumors version 1.1 (RECIST v1.1).[16] Entry to the dose-expansion cohort required the presence of a BRCA mutation, with the exception of patients with ovarian carcinoma, fallopian tube carcinoma, and primary peritoneal carcinoma. Full study eligibility criteria are provided in Supplementary Table S1.
# Dose escalation was conducted using a modified Fibonacci 3 + 3 method (Supplementary Fig. S1).[17] Patients were administered oral senaparib from a planned starting dose of 2 mg once daily (QD), with preliminary dose escalation to 120 mg via nine dose groups, in order of their entry into the study. At a given dose level, each patient received a single dose of senaparib followed by a 7-day washout period. They then entered a continuous dosing period to confirm the safety and PK profile, in which they received senaparib QD from day 1 to day 21 of each 3-week cycle. Progression to the next higher dose required approval from the Data Safety Monitoring Committee (DSMC) upon review of the safety and PK data of the previous dose. A 50-mg twice-daily (BID) dosing group was added (planned enrollment, n = 6 patients) based on a DSMC review of the safety, PK, and efficacy analysis of the completed QD dose groups in the phase I clinical trial of senaparib dose escalation in Australia (NCT03507543), which commenced prior to the start of this trial.
# The dose-expansion period included 3 populations: dose groups in which at least one patient achieved complete response (CR) or partial response (PR) per RECIST v1.1[16] and 1 dose group higher (evaluated for safety), as well as the dose group at the maximum tolerated dose (MTD)/recommended phase II dose (RP2D). Each of these groups included those patients in the respective dose-escalation group plus a planned additional 10 patients (approximately 20 patients in the MTD/RP2D group) with BRCA^mut+ solid tumors (ovarian, breast, or prostate cancer were preferred, and ovarian cancer could be BRCA wild type). Patients received senaparib monotherapy orally QD or BID (50-mg dose only) over each 3-week cycle until disease progression or unacceptable toxicity.
# DLTs were predefined toxicities (Supplementary Table S2) recorded over the 7 days following the single-dose administration of senaparib and during the first treatment cycle (day 1-day 21) for each dose group in the dose-escalation period only. The MTD was defined as the maximum dose at which ≤1/6 patients experienced a DLT. Senaparib PK parameters were derived from blood samples collected from patients after the single administration, and at regular intervals during the first cycle of the dose-escalation and dose-expansion periods. Plasma concentrations of senaparib were determined using high-performance liquid chromatography-tandem mass spectrometry. Tumor response was assessed every 6 weeks per RECIST v1.1,[16] recording objective response rate (ORR), disease control rate (DCR), duration of response (DOR), and progression-free survival (PFS) by dose level for all patients and for those harboring BRCA^mut+ tumors.
compound,measurement,setting,value
O=C(c1cc(Cn2c(=O)[nH]c(=O)c3c(F)cccc32)ccc1F)N1CCN(c2ncccn2)CC1 [Senaparib],"Appetite decreased TRAE, All",80 mg QD n = 9,3 (33.3) n (%)
same,"Appetite decreased TRAE, Gr≥3",80 mg QD n = 9,0 n (%)
same,"Asthenia TRAE, All",80 mg QD n = 9,2 (22.2) n (%)
same,"Asthenia TRAE, Gr≥3",80 mg QD n = 9,0 n (%)
same,"Blood bilirubin increased TRAE, All",80 mg QD n = 9,2 (22.2) n (%)
same,"Blood bilirubin increased TRAE, Gr≥3",80 mg QD n = 9,0 n (%)
same,"Blood creatinine increased TRAE, All",80 mg QD n = 9,2 (22.2) n (%)
same,"Blood creatinine increased TRAE, Gr≥3",80 mg QD n = 9,0 n (%)
same,"Hypokalemia TRAE, All",80 mg QD n = 9,3 (33.3) n (%)
same,"Nausea TRAE, All",80 mg QD n = 9,4 (44.4) n (%)
same,"Nausea TRAE, Gr≥3",80 mg QD n = 9,0 n (%)
same,"Neutrophil count decreased TRAE, All",80 mg QD n = 9,4 (44.4) n (%)
same,"Neutrophil count decreased TRAE, Gr≥3",80 mg QD n = 9,1 (11.1) n (%)
same,"Platelet count decreased TRAE, All",80 mg QD n = 9,4 (44.4) n (%)
same,"Platelet count decreased TRAE, Gr≥3",80 mg QD n = 9,2 (22.2) n (%)
same,"SAEs, events",80 mg QD n = 9,5 n ev
same,"SAEs, patients",80 mg QD n = 9,5 (55.6) n (%)
same,"TEAE Grade ≥3, events",80 mg QD n = 9,12 n ev
same,"TEAE Grade ≥3, patients",80 mg QD n = 9,6 (66.7) n (%)
same,"TEAEs leading to death, events",80 mg QD n = 9,1 n ev
same,"TEAEs leading to death, patients",80 mg QD n = 9,1 (11.1) n (%)
same,"TEAEs leading to dose discontinuation, events",80 mg QD n = 9,4 n ev
same,"TEAEs leading to dose discontinuation, patients",80 mg QD n = 9,1 (11.1) n (%)
same,"TEAEs leading to dose interruption, events",80 mg QD n = 9,9 n ev
same,"TEAEs leading to dose interruption, patients",80 mg QD n = 9,4 (44.4) n (%)
same,"TEAEs leading to dose reduction, events",80 mg QD n = 9,3 n ev
same,"TEAEs leading to dose reduction, patients",80 mg QD n = 9,3 (33.3) n (%)
same,"TRAEs Grade ≥3, events",80 mg QD n = 9,10 n ev
same,"TRAEs Grade ≥3, patients",80 mg QD n = 9,5 (55.6) n (%)
same,"TRAEs, events",80 mg QD n = 9,109 n ev
same,"TRAEs, patients",80 mg QD n = 9,9 (100) n (%)
same,"Vomiting TRAE, All",80 mg QD n = 9,2 (22.2) n (%)
same,"Vomiting TRAE, Gr≥3",80 mg QD n = 9,1 (11.1) n (%)
same,"WBC decreased TRAE, All",80 mg QD n = 9,5 (55.6) n (%)
same,"WBC decreased TRAE, Gr≥3",80 mg QD n = 9,1 (11.1) n (%)
same,"ALT increased TRAE, All",100 mg QD n = 20,5 (25.0) n (%)
same,"ALT increased TRAE, Gr≥3",100 mg QD n = 20,0 n (%)
same,"AST increased TRAE, All",100 mg QD n = 20,4 (20.0) n (%)
same,"AST increased TRAE, Gr≥3",100 mg QD n = 20,1 (5.0) n (%)
same,"Anemia TRAE, All",100 mg QD n = 20,11 (55.0) n (%)
same,"Anemia TRAE, Gr≥3",100 mg QD n = 20,4 (20.0) n (%)
same,"Any TEAE, All",100 mg QD n = 20,20 (100) n (%)
same,"Any TEAE, Gr≥3",100 mg QD n = 20,7 (35.0) n (%)
same,"Any TEAE, events",100 mg QD n = 20,158 n ev
same,"Any TEAE, patients",100 mg QD n = 20,20 (100) n (%)
same,"Any TRAE, All",100 mg QD n = 20,20 (100) n (%)
same,"Any TRAE, Gr≥3",100 mg QD n = 20,7 (35.0) n (%)
same,"Appetite decreased TRAE, All",100 mg QD n = 20,5 (25.0) n (%)
same,"Appetite decreased TRAE, Gr≥3",100 mg QD n = 20,0 n (%)
same,"Asthenia TRAE, All",100 mg QD n = 20,5 (25.0) n (%)
same,"Asthenia TRAE, Gr≥3",100 mg QD n = 20,0 n (%)
same,"Blood bilirubin increased TRAE, All",100 mg QD n = 20,3 (15.0) n (%)
same,"Blood bilirubin increased TRAE, Gr≥3",100 mg QD n = 20,0 n (%)
same,"Blood creatinine increased TRAE, All",100 mg QD n = 20,2 (10.0) n (%)
same,"Blood creatinine increased TRAE, Gr≥3",100 mg QD n = 20,0 n (%)
same,"Hypokalemia TRAE, All",100 mg QD n = 20,0 n (%)
same,"Hypokalemia TRAE, Gr≥3",100 mg QD n = 20,0 n (%)
same,"Nausea TRAE, All",100 mg QD n = 20,4 (20.0) n (%)
same,"Nausea TRAE, Gr≥3",100 mg QD n = 20,0 n (%)
same,"Neutrophil count decreased TRAE, All",100 mg QD n = 20,5 (25.0) n (%)
same,"Neutrophil count decreased TRAE, Gr≥3",100 mg QD n = 20,2 (10.0) n (%)
same,"Platelet count decreased TRAE, All",100 mg QD n = 20,6 (30.0) n (%)
same,"Platelet count decreased TRAE, Gr≥3",100 mg QD n = 20,1 (5.0) n (%)
same,"SAEs, events",100 mg QD n = 20,1 n ev
same,"SAEs, patients",100 mg QD n = 20,1 (5.0) n (%)
same,"TEAE Grade ≥3, events",100 mg QD n = 20,9 n ev
same,"TEAE Grade ≥3, patients",100 mg QD n = 20,7 (35.0) n (%)
same,"TEAEs leading to death, events",100 mg QD n = 20,0 n ev
same,"TEAEs leading to death, patients",100 mg QD n = 20,0 n (%)
same,"TEAEs leading to dose discontinuation, events",100 mg QD n = 20,1 n ev
same,"TEAEs leading to dose discontinuation, patients",100 mg QD n = 20,1 (5.0) n (%)
same,"TEAEs leading to dose interruption, events",100 mg QD n = 20,8 n ev
same,"TEAEs leading to dose interruption, patients",100 mg QD n = 20,6 (30.0) n (%)
same,"TEAEs leading to dose reduction, events",100 mg QD n = 20,6 n ev
same,"TEAEs leading to dose reduction, patients",100 mg QD n = 20,4 (20.0) n (%)
same,"TRAEs Grade ≥3, events",100 mg QD n = 20,9 n ev
same,"TRAEs Grade ≥3, patients",100 mg QD n = 20,7 (35.0) n (%)
same,"TRAEs, events",100 mg QD n = 20,144 n ev
same,"TRAEs, patients",100 mg QD n = 20,20 (100) n (%)
same,"Vomiting TRAE, All",100 mg QD n = 20,5 (25.0) n (%)
same,"Vomiting TRAE, Gr≥3",100 mg QD n = 20,0 n (%)
same,"WBC decreased TRAE, All",100 mg QD n = 20,9 (45.0) n (%)
same,"WBC decreased TRAE, Gr≥3",100 mg QD n = 20,1 (5.0) n (%)
same,"ALT increased TRAE, All",120 mg QD n = 4,2 (50.0) n (%)
same,"ALT increased TRAE, Gr≥3",120 mg QD n = 4,1 (25.0) n (%)
same,"AST increased TRAE, All",120 mg QD n = 4,2 (50.0) n (%)
same,"AST increased TRAE, Gr≥3",120 mg QD n = 4,0 n (%)
same,"Anemia TRAE, All",120 mg QD n = 4,3 (75.0) n (%)
same,"Anemia TRAE, Gr≥3",120 mg QD n = 4,1 (25.0) n (%)
same,"Any TEAE, All",120 mg QD n = 4,4 (100) n (%)
same,"Any TEAE, Gr≥3",120 mg QD n = 4,3 (75.0) n (%)
same,"Any TEAE, events",120 mg QD n = 4,52 n ev
same,"Any TEAE, patients",120 mg QD n = 4,4 (100) n (%)
same,"Any TRAE, All",120 mg QD n = 4,4 (100) n (%)
same,"Any TRAE, Gr≥3",120 mg QD n = 4,3 (75.0) n (%)
same,"Appetite decreased TRAE, All",120 mg QD n = 4,1 (25.0) n (%)
same,"Appetite decreased TRAE, Gr≥3",120 mg QD n = 4,0 n (%)
same,"Asthenia TRAE, All",120 mg QD n = 4,2 (50.0) n (%)
same,"Asthenia TRAE, Gr≥3",120 mg QD n = 4,0 n (%)
same,"Blood bilirubin increased TRAE, All",120 mg QD n = 4,2 (50.0) n (%)
same,"Blood bilirubin increased TRAE, Gr≥3",120 mg QD n = 4,1 (25.0) n (%)
same,"Blood creatinine increased TRAE, All",120 mg QD n = 4,1 (25.0) n (%)
same,"Blood creatinine increased TRAE, Gr≥3",120 mg QD n = 4,0 n (%)
same,"Hypokalemia TRAE, All",120 mg QD n = 4,0 n (%)
same,"Hypokalemia TRAE, Gr≥3",120 mg QD n = 4,0 n (%)
same,"Nausea TRAE, All",120 mg QD n = 4,1 (25.0) n (%)
same,"Nausea TRAE, Gr≥3",120 mg QD n = 4,0 n (%)
same,"Neutrophil count decreased TRAE, All",120 mg QD n = 4,1 (25.0) n (%)
same,"Neutrophil count decreased TRAE, Gr≥3",120 mg QD n = 4,0 n (%)
same,"Platelet count decreased TRAE, All",120 mg QD n = 4,1 (25.0) n (%)
same,"Platelet count decreased TRAE, Gr≥3",120 mg QD n = 4,0 n (%)
same,"SAEs, events",120 mg QD n = 4,1 n ev
same,"SAEs, patients",120 mg QD n = 4,1 (25.0) n (%)
same,"TEAE Grade ≥3, events",120 mg QD n = 4,6 n ev
same,"TEAE Grade ≥3, patients",120 mg QD n = 4,3 (75.0) n (%)
same,"TEAEs leading to death, events",120 mg QD n = 4,0 n ev
